# ChEMBL document CHEMBL1201862, “PubChem BioAssay data set” (2004)
# Active and inactive are the calls of the source.
# Experiments:
# [1] = target: T1, Oxysterols receptor LXR-beta (Homo sapiens, UniProt P55055); assay: LXR agonists, Gal4 luciferase reporter, dose response, counter-screen for ssDAF-12 agonist project, cell-based, luminescence, HEK293, S. stercoralis campaign (AID 720737); assay type: functional; details: read-out: IC50 (the source's name)
# T1 sequence (P55055 whole entry): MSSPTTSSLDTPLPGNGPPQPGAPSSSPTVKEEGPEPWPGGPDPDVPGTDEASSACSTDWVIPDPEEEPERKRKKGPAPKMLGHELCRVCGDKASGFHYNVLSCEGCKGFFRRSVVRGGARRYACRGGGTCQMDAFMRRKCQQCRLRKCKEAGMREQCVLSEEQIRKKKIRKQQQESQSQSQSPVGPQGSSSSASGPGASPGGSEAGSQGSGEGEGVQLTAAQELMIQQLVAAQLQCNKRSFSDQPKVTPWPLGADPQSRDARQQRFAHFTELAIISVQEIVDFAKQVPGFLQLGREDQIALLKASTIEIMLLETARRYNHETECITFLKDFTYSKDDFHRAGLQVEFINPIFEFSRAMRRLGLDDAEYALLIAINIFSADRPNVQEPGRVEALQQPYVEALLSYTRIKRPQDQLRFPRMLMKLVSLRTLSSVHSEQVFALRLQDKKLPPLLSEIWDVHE
# [2] = Luminescence-based cell-based high throughput dose response assay to identify activators of the DAF-12 from the parasite S. stercoralis (ssDAF-12).; assay type: functional
# [3] = target: T1, Oxysterols receptor LXR-beta; assay type: functional, cell-based
# Protein skinhead-1 = target: T2, Protein skinhead-1 (Caenorhabditis elegans, UniProt P34707); assay type: functional
# T2 sequence (P34707 whole entry): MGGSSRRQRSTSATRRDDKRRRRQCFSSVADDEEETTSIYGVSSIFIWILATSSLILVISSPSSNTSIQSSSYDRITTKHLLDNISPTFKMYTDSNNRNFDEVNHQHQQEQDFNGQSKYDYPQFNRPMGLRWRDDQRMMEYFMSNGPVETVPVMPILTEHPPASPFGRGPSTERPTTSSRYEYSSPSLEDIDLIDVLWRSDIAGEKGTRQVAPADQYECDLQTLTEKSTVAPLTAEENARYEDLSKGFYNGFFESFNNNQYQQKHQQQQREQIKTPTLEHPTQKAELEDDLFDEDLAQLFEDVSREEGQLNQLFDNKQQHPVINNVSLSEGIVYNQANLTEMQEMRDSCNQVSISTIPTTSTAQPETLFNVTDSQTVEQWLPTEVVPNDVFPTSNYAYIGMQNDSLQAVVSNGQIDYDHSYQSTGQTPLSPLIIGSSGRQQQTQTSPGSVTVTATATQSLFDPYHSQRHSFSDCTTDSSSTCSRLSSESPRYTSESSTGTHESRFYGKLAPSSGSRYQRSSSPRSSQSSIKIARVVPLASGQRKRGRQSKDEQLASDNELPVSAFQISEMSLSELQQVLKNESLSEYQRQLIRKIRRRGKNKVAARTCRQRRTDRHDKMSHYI
# [4] = target: Glucose-6-phosphate 1-dehydrogenase (Homo sapiens, UniProt P11413); assay: inhibition of Homo sapiens G6PD, dose series – biochemical, fluorescence, selectivity assay for P. falciparum G6PD inhibitor project, dose response (AID 504792); assay type: functional
# [5] = target: T3, Histone-lysine N-methyltransferase NSD2 (Homo sapiens, UniProt O96028); assay type: biochemical
# T3 sequence (O96028 whole entry): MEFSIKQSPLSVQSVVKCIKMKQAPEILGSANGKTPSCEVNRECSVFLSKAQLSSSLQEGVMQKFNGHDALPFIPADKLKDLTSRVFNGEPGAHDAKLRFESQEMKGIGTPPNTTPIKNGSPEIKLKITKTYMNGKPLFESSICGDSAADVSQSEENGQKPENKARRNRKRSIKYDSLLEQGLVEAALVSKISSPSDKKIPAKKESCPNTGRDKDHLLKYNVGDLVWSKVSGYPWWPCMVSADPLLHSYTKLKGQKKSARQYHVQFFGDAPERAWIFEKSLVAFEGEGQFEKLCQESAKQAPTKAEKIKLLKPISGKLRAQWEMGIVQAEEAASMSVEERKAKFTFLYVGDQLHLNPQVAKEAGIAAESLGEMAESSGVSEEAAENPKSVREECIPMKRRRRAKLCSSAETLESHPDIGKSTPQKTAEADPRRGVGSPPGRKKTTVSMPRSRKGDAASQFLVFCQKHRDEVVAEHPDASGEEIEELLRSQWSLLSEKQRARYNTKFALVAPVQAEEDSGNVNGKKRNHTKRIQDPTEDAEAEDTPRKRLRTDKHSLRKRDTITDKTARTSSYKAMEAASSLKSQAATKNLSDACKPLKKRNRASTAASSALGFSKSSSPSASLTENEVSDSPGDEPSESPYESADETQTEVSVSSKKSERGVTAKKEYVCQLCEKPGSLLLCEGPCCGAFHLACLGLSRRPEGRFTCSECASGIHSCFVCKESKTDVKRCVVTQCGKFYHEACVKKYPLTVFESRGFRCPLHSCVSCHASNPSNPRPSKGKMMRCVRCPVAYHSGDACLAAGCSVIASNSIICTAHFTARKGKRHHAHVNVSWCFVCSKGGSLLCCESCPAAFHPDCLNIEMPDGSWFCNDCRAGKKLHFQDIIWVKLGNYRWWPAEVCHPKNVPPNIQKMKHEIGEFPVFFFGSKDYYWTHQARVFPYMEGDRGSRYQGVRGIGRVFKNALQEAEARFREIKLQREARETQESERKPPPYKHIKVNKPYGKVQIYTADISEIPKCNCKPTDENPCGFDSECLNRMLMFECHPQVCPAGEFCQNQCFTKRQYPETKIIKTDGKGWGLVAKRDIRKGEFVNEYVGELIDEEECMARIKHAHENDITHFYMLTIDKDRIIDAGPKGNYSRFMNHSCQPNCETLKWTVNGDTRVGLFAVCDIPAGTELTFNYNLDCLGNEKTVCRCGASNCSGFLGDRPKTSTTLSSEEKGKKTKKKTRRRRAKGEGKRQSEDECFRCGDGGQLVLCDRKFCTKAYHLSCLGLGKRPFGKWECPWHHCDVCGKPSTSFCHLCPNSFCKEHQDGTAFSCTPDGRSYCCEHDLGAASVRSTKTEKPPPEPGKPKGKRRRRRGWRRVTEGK
# Caspase-6 = target: T4, Caspase-6 (Homo sapiens, UniProt P55212); assay: inhibition of CASP6 peptide cleavage – biochemical, VEID-R110 fluorescence, cherry-pick, dose response (AID 720632)
# T4 sequence (P55212 whole entry): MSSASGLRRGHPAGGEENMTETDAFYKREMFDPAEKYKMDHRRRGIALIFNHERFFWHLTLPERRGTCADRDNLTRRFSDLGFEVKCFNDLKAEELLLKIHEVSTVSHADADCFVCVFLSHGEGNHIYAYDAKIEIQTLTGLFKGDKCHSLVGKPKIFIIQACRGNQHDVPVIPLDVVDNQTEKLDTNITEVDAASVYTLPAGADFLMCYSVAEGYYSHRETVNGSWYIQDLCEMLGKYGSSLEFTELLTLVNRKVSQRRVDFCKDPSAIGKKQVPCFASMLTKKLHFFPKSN
# Large T antigen = Large T antigen (Simian virus 40, UniProt P03070); assay type: functional, Betapolyomavirus macacae;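 also: Confirmatory-stage PubChem screen for compounds that inhibit SV40 T antigen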
# Genome polyprotein = Genome polyprotein (dengue virus type 2, UniProt P29990); assay: flavivirus cap methylation enzyme inhibition – biochemical, confirmation dose response, primary screen (AID 588689); assay type: functional
# Protein Tat = target: T5, Protein Tat (Human immunodeficiency virus type 1 group M subtype B (isolate HXB2)(HIV-1), UniProt P04608); assay type: functional;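 also: tat binding to TAR RNA read out by fluorescence polarization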
# T5 sequence (P04608 whole entry): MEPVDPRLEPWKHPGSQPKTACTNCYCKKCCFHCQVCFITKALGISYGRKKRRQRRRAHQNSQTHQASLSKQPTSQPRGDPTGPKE
# Cytochrome P450 2C9 = Cytochrome P450 2C9 (Homo sapiens, UniProt P11712)
# Vero = assay: viability of Vero cells under compound – cytotoxicity control for flavivirus capping enzyme inhibitors (AID 588742); assay type: functional; details: Chlorocebus sabaeus
# Cytochrome P450 2D6 = Cytochrome P450 2D6 (Homo sapiens, UniProt P10635);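 also: CYP2D6 member of a cytochrome P450 panel assay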
# [6] = viability loss in THP-1 monocytes – THP-1 cells, cytotoxicity control for Vif-APOBEC3G degradation inhibitor project, dose response (AID 1117359); assay type: functional; details: THP-1
# [7] = OVCAR8 cell viability loss – plate reader, dry powder samples, PAX8 project, dose response (AID 743197); assay type: functional, cell-based; details: OVCAR-8
# Paired box protein Pax-8 = Paired box protein Pax-8 (Homo sapiens, UniProt Q06710); assay: PAX8 transcriptional activity inhibition in RMG-I – RMG-I cells, luciferase, cherry-pick, dose response (AID 687027); assay type: functional, cell-based;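 also: luciferase reporter driven by Pax8 target thyroperoxidase promoter measured by SteadyGlo luminescence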
# [8] = OVCAR-3 cell viability loss – plate reader, dry powder samples, PAX8 inhibitor project, dose response (AID 743044); assay type: functional, cell-based
# Sequence of Glucose-6-phosphate 1-dehydrogenase (P11413 whole entry): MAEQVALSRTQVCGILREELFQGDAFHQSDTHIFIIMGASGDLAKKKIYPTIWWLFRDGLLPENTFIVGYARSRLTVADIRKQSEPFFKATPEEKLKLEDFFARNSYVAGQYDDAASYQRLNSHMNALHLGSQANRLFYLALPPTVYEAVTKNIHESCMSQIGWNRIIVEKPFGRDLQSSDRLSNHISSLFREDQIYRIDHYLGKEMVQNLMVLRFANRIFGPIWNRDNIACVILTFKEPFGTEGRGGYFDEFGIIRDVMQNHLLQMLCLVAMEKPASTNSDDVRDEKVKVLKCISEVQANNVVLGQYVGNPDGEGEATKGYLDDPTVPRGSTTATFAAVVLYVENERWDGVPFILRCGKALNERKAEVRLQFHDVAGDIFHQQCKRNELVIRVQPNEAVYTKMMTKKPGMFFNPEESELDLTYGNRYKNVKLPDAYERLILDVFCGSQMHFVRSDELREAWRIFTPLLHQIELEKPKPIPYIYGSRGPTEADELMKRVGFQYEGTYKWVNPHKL
# Sequence of Cytochrome P450 2C9 (P11712 whole entry): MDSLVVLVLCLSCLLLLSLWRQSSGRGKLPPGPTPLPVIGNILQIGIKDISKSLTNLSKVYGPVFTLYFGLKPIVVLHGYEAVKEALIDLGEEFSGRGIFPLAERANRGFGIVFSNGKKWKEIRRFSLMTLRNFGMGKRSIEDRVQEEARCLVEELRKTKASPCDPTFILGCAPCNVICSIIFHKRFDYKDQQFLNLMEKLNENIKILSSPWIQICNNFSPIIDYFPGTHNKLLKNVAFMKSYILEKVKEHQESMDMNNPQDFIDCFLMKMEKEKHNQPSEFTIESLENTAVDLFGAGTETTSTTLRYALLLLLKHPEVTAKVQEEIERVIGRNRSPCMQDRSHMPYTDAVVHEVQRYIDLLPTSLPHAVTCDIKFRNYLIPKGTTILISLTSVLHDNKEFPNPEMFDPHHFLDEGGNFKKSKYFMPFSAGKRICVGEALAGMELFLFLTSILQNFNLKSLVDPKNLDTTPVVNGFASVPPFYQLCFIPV
# Sequence of Genome polyprotein (P29990 2492-3391 limits assumed): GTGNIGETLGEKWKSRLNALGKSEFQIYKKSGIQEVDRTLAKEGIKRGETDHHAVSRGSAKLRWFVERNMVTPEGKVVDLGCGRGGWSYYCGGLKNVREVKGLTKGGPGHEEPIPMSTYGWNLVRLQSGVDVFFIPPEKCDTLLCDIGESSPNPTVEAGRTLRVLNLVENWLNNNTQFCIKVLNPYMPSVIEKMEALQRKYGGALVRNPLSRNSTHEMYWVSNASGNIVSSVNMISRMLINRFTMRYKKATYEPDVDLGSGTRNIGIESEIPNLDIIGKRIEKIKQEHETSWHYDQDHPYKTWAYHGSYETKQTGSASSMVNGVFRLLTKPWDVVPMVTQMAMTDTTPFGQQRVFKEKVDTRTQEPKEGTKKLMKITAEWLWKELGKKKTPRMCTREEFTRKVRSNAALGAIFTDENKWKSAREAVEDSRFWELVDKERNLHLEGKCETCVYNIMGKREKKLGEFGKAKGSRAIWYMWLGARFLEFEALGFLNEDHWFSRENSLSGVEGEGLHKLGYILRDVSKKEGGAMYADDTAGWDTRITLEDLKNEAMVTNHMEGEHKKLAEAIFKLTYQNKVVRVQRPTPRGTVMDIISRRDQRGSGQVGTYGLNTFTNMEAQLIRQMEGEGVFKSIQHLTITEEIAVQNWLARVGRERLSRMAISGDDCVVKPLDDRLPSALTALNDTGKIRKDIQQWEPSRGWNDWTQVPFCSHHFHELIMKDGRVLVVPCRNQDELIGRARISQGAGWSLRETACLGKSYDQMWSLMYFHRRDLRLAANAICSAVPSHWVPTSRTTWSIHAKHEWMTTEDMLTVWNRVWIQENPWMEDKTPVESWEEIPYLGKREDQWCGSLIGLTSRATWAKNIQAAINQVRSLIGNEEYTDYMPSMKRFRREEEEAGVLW
# Sequence of Paired box protein Pax-8 (Q06710 whole entry): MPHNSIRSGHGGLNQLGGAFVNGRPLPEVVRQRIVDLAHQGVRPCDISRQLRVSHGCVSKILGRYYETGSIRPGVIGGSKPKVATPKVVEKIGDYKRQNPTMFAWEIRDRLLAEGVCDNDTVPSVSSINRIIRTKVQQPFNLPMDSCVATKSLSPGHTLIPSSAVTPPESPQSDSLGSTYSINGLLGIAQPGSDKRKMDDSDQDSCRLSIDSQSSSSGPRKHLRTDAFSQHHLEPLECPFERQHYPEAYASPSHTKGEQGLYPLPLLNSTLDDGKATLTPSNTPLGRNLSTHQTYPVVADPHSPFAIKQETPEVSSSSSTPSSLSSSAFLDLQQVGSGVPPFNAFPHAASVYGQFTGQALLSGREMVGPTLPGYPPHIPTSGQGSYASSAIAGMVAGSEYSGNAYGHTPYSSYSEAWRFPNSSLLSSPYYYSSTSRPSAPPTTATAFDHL
# Sequence of Large T antigen (P03070 whole entry): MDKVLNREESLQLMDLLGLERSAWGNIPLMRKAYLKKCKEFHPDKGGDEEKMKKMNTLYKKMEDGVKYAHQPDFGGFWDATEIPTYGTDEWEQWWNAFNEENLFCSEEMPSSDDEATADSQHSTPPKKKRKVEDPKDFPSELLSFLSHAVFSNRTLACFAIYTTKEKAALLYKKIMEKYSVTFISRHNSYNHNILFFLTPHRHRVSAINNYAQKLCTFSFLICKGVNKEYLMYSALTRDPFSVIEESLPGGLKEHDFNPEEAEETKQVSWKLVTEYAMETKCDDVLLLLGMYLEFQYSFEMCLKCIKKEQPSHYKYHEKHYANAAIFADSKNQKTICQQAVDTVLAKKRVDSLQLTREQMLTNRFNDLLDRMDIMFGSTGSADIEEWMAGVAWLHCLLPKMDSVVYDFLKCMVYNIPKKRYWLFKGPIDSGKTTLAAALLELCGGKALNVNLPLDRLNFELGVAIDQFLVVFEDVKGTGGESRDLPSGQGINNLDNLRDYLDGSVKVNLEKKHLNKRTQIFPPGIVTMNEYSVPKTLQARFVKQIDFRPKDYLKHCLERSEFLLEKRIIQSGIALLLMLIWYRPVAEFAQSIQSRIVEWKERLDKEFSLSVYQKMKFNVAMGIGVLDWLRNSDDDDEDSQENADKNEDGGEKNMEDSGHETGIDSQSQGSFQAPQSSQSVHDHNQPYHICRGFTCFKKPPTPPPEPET
# Sequence of Cytochrome P450 2D6 (P10635 whole entry): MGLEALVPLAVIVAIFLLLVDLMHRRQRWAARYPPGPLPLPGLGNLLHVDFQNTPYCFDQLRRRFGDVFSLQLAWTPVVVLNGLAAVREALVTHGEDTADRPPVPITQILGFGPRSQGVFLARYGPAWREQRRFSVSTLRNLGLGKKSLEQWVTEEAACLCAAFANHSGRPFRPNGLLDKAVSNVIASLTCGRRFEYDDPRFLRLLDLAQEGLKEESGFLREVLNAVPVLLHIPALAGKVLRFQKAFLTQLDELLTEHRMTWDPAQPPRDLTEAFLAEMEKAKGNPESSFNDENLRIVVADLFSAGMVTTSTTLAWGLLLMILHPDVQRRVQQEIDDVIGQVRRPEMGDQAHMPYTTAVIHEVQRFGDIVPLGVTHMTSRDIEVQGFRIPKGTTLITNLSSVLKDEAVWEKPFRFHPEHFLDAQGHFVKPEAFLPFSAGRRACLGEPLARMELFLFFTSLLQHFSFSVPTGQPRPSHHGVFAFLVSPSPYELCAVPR
compound,measurement,setting,value
O=C(/C=C/c1cccs1)N1CCc2ccccc21,EC50,cells,> 67.5 µM (inactive)
same,EC50,[1],> 67.5 µM (inactive)
same,IC50,[2],> 67.5 µM (inactive)
same,EC50,[3],> 67.5 µM (inactive)
same,IC50,Protein skinhead-1,> 100 µM (inactive)
Fc1ccc(-c2nc3n(n2)Cc2ccccc2-3)cc1,EC50,cells,> 67.6 µM (inactive)
same,EC50,[1],> 67.6 µM (inactive)
same,IC50,[2],> 67.6 µM (inactive)
same,EC50,[3],> 67.6 µM (inactive)
O=C1NC(=O)N(c2ccccc2)C(=O)/C1=C/c1ccc([N+](=O)[O-])s1,IC50,[4],76.7 µM (inactive)
same,AC50,[5],> 20 µM (inactive)
same,AC50,Caspase-6,33.3 µM (active)
same,IC50,Large T antigen,59.3 µM (active)
same,IC50,Genome polyprotein,20.4 µM (active)
CN=c1ccc(Br)cc(C(=O)/C=C/c2ccc3c(c2)OCO3)c1O,IC50,Protein Tat,40.7 µM (inconclusive)
same,AC50,Cytochrome P450 2C9,inconclusive
same,CC50,Vero,> 40 µM (active)
same,AC50,Cytochrome P450 2D6,10 µM (inconclusive)
same,CC50,[6],> 40 µM (active)
COc1ccccc1NC(=O)N1CCCCN2[C@H](C1)[C@@H](c1ccc(-c3cccc(C#N)c3)cc1)[C@@H]2CO,AC50,[7],> 70 µM (inactive)
same,AC50,Paired box protein Pax-8,11.6 µM (active)
same,AC50,[8],23.2 µM (active)
